One data set has as its system rhesus hepatocytes. Put plainly: host hepatocyte viability in the P. cynomolgi assay. It is filed as cell-based. The following applies: radical cure mode; read-out: cytotoxicity CC50. The protocol:
(§1) The liver-stage P. cynomolgi assay was designed to identify anti-hypnozoite drugs utilizing a 384-well in vitro culture system[31],[37]. Briefly, cryopreserved primary simian hepatocytes (donor lots XGB, OQB, and QHO: BioIVT, Inc.) were seeded in collagen-coated 384-well plates and infected with P. cynomolgi bastianellii (B strain) sporozoites dissected from infected Anopheles dirus mosquitoes. Test compounds were solubilized in 100% DMSO and serially diluted 2-fold to generate up to a 12-point dose-response curve, maintaining a final DMSO concentration of 0.1% across all wells. Two distinct treatment modes were evaluated. For the prophylactic assay, to assess the prevention of infection, compound exposure began 1-hour post-infection with daily media changes on Days 1 and 2. For the radical cure assay, to assess activity against established liver forms, drugs were administered daily from Day 4 through Day 7 post-infection. […] For readout on Day 8, plates were fixed and stained via immunofluorescence to visualize parasite forms (hypnozoites and schizonts) and hepatocyte nuclei, and images were acquired using an Operetta CLS high-content imaging system (PerkinElmer). Host hepatocyte viability was measured in parallel to determine compound toxicity. Parasite forms were automatically quantified using Harmony 4.9 software, and percent inhibition and toxicity were calculated relative to in-plate DMSO vehicle controls. IC50 and CC50 (half-maximal cytotoxic concentrations) were determined by fitting dose-response data to a four-parameter logistic (variable slope) model using a custom Python script incorporating a grid search algorithm.

Data set [1] concerns P. cynomolgi hypnozoites and schizonts. In words: in vitro liver-stage P. cynomolgi assay in primary rhesus hepatocytes. The class given is cell-based, Plasmodium cynomolgi. The conditions noted are these: read-out: inhibition IC50. The protocol:
as §1

Data set [2] can be described thus: pilot safety study in rhesus monkeys. The class given is in vivo. The following applies: response to reviewers.
The subject of data set [3] is P. falciparum NF54 oocysts in mosquitoes. In words: tarsal contact assay. It is filed as in vivo, P. falciparum in Anopheles gambiae G3. The following applies: 5% by weight film, 6 min contact. As to the method:
The tarsal assay using a thin film was performed. For preparation of a thin film, 25 mL xylenes and 1.0 g low density polyethylene polymer were combined on the lid of a glass petri dish (6 cm) and heated at 150 °C until the polymer was dissolved. Xylenes were occasionally replenished upon evaporation. A solution of xylenes containing […] prodrug was then added to the above solution. […] The crude polymer thin film was then put underneath the glass petri dish, and the assembled apparatus was heated on a hot plate with a weight placed on top. The resulting extruded polymer thin film containing the 5% (w/w) […] prodrug in low-density polyethylene (LDPE) was allowed to cool and removed from the petri dish lid. […] After exposure, the mosquitoes were immediately transferred to a cage and one hour later provided with cultured P. falciparum NF54 gametocyte-infected erythrocytes using a membrane feeder. […] On Day 7 post-infection, mosquitoes were aspirated into 80% ethanol and incubated at -20 °C for 10 min before being transferred to 1X PBS for dissection. […] Midguts were imaged and oocysts counted at 100× magnification on an Olympus Inverted CKX41 microscope to quantify oocyst prevalence and intensity.

Molecules are shown by their SMILES. pIC50: −log10 of the molar value. Read-outs that look alike come from different tables or passages of the source. Some results are limits rather than exact numbers.

For `CNC(=O)c1ccc(-c2cnc3cnc(C(=O)N(C)c4ccc(Cl)cc4)cn23)cc1` [KDU691], the CC50 with rhesus hepatocytes was > 20000 nM. In addition, the negative-log IC50 (pIC50) was 6.92 in data set [1] (prophylactic mode, hypnozoite); 7.01 in data set [1] (prophylactic mode, schizont); < 4.70 in data set [1] (radical cure mode, hypnozoite); 6.72 in data set [1] (radical cure mode, schizont).

`CCOC(=O)Oc1c2ccc(Oc3ccc(OC(F)(F)F)cc3)cc2nc2cc(Cl)cc(F)c12` [T111 prodrug]: the tolerability result in data set [2] is on record as “well-tolerated”. Also, in data set [3], the “reduction in oocyst intensity (inhibition)” value was 97.6% and the “reduction in oocyst prevalence (inhibition)” value came out at 92.5%.

The values are drawn from paper PMC13168289, “Potent acridone antimalarial against all three life stages of Plasmodium” (Nature Communications, 2026).
